Results from ChEMBL document CHEMBL1857833, “Screening and optimization of specific chemical series against human African Trypanosomiasis (HAT)”.
Values after ≈ are worked out from the molar mass of the structure shown.

What was measured:
[1] = tested on: Trypanosoma brucei; test: DNDI: Inhibition of Human African Trypanosomiasis, EATRO 110, in vitro; assay type: functional, organism-based
[2] = tested on: Trypanosoma brucei; test: DNDI: Mean survival time in days (MSD) of mice after intraperitoneal injection of Human African Trypanosomiasis (HAT), EATRO 110, in vivo at 5 mg/kg/day for 4 days.; assay type: functional, Mus musculus
[3] = tested on: Trypanosoma brucei; test: DNDI: Mean survival time in days (MSD) of mice after intraperitoneal injection of Human African Trypanosomiasis (HAT), EATRO 110, in vivo at 20 mg/kg/day for 4 days.; assay type: functional, Mus musculus
[4] = target: T1, MDR1 (ABCB1) (Homo sapiens, UniProt P08183); test: (§1) DNDI: Efflux ratio for permeability from basolateral to apical side to apical to basolateral side of MDCK cells transfected with human MDR1; assay type: ADME, cell-based, Canis lupus familiaris; conditions: dog, read-out: B-A/A-B
T1 sequence (P08183 whole entry): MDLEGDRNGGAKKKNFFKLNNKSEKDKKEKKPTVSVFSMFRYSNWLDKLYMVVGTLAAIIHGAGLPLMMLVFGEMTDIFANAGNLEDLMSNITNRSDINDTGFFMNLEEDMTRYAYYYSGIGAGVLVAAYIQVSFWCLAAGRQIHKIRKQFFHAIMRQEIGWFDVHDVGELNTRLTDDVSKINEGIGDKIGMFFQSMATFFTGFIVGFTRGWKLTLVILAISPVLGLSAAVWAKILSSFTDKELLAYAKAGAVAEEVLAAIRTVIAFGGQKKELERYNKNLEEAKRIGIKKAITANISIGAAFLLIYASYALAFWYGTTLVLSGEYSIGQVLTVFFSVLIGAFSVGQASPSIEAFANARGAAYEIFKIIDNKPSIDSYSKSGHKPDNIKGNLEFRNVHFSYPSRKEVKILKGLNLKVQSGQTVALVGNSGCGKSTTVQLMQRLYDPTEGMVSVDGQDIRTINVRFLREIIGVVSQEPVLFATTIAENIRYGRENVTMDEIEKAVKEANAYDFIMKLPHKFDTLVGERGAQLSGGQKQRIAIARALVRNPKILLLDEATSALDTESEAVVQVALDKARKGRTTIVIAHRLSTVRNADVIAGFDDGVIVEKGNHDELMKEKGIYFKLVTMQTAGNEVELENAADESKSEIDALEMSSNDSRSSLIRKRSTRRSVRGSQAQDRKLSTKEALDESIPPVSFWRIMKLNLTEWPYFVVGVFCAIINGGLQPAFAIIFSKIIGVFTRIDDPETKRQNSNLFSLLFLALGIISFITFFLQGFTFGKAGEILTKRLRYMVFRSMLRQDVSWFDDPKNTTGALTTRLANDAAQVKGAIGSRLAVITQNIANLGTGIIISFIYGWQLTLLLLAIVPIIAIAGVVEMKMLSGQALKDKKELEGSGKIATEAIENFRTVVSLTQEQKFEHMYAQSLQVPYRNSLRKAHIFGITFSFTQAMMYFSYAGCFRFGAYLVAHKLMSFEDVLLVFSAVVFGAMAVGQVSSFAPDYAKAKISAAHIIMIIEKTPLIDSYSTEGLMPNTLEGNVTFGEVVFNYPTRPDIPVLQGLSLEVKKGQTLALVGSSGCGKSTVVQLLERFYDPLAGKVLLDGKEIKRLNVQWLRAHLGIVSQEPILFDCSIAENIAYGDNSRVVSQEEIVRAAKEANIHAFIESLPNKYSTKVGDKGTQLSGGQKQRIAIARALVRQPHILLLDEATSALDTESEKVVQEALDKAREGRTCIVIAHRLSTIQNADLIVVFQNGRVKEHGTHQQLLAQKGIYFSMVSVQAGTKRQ

[5] = tested on: Trypanosoma brucei; test: DNDI: Mean survival time in days (MSD) of mice after intraperitoneal injection of Human African Trypanosomiasis (HAT), EATRO 110, in vivo at 12.5 mg/kg/day for 4 days.; assay type: functional, Mus musculus
[6] = DNDI: Solubility in phosphate buffered saline at pH7.4 measured by optical density (turbidimetry) at room temperature (OD-RT); assay type: physicochemical; conditions: pH 7.4
[7] = target: T1, MDR1 (ABCB1); test: DNDI: Apparent permeability from apical to basolateral side of the MDCK cell transfected with human MDR1; assay type: ADME, cell-based, Canis lupus familiaris; conditions: dog
[8] = tested on: Trypanosoma brucei; test: DNDI: Mean survival time in days (MSD) of mice after intraperitoneal injection of Human African Trypanosomiasis (HAT), EATRO 110, in vivo at 2.5 mg/kg/day for 4 days.; assay type: functional, Mus musculus
[9] = DNDI: in vitro intrinsic clearance in mouse liver microsomes at a concentration of 10uM; assay type: ADME, Microsome; conditions: read-out: CLint in vitro
[10] = DNDI: Cytotoxicity against L929 mouse fibroblasts, CYTO-SP, 24 hour; assay type: toxicity, cell-based; conditions: mouse, L929 mouse fibroblasts
[11] = target: T1, MDR1 (ABCB1); test: DNDI: Apparent permeability from basolateral to apical side of the MDCK cell transfected with human MDR1 after 60 mins at a concentration of 3uM; assay type: ADME, cell-based, Canis lupus familiaris; conditions: dog
[12] = tested on: Trypanosoma brucei; test: DNDI: Inhibition of Human African Trypanosomiasis, SBRI 427, in vitro; assay type: functional, organism-based
[13] = target: T1, MDR1 (ABCB1); test: DNDI: % of compound recovered from apical to basolateral permeability assay in MDCK cells transfected with human MDR1; assay type: ADME, cell-based, Canis lupus familiaris; conditions: dog
[14] = target: T1, MDR1 (ABCB1); test: DNDI: % of compound recovered from basolateral to apical permeability assay in MDCK cells transfected with human MDR1; assay type: ADME, cell-based, Canis lupus familiaris; conditions: dog
[15] = DNDI: Lipophilicity measured in Chromatographic hydrophobicity index (CHI) assay, pH 7.4; assay type: physicochemical; conditions: buffer
[16] = tested on: Trypanosoma brucei; test: DNDI: Mean survival time in days (MSD) of mice after intraperitoneal injection of Human African Trypanosomiasis (HAT), EATRO 110, at 0.5 mg/kg/day for 4 days.; assay type: functional, Mus musculus
[17] = DNDI: half life in mouse liver microsomes at a concentration of 10uM; assay type: ADME, Microsome
[18] = tested on: Trypanosoma brucei; test: DNDI: Mean survival time in days (MSD) of mice after intraperitoneal injection of Human African Trypanosomiasis (HAT), EATRO 110, in vivo at 1.25 mg/kg/day for 4 days.; assay type: functional, Mus musculus
[19] = in vitro; conditions: mouse, liver microsomes
Description: (§3) DNDI: in vitro intrinsic clearance in mouse liver microsomes at a concentration of 1uM

[20] = in vitro; conditions: mouse, liver microsomes, t (1 / 2)
Description: DNDI: half life in mouse liver microsomes at a concentration of 1uM

[21] = mouse, microsomes, 1 µM
Description: as §3

[22] = in vitro; conditions: human, liver microsomes, CLint in vitro
Description: (§4) DNDI: in vitro intrinsic clearance in human liver microsomes at a concentration of 1uM

[23] = DNDI: Solubility in phosphate buffered saline at pH7.4 measured by nephelometry at room temperature (NEPH-RT); assay type: physicochemical; conditions: pH 7.4
[24] = in vitro; conditions: human, liver microsomes, t (1 / 2)
Description: (§5) DNDI: half life in human liver microsomes at a concentration of 1uM

[25] = human, microsomes, 1 µM
Description: as §4

[26] = human, microsomes, 1 µM; remark: listed apart in the source
Description: as §5

[27] = tested on: Trypanosoma brucei; test: DNDI: Mean survival time in days (MSD) of mice after intraperitoneal injection of Human African Trypanosomiasis (HAT), STIB 795, in vivo at 50 mg/kg/day for 4 days.; assay type: functional, Mus musculus
[28] = DNDI: % of compound remaining in mouse S9 microsomes at a concentration of 1uM after 60 mins; assay type: ADME, subcellular, Liver, S9 fraction
[29] = tested on: Trypanosoma brucei; test: DNDI: Mean survival time in days (MSD) of mice after intraperitoneal injection of Human African Trypanosomiasis (HAT), EATRO 110, in vivo at 50 mg/kg/day for 4 days.; assay type: functional, Mus musculus
[30] = DNDI: % of compound remaining in rat S9 microsomes at a concentration of 1uM; assay type: ADME, subcellular, Liver, S9 fraction
[31] = (§2) DNDI: Cytotoxicity against L929 mouse fibroblasts, 72 hour.; assay type: toxicity, cell-based; conditions: mouse, L929 mouse fibroblasts
[32] = target: T2, ATP-dependent translocase ABCB1 (Homo sapiens, UniProt P08183); test: DNDI: Apparent permeability from basolateral to apical side of the MDCK cell transfected with human MDR1after 60 mins at a concentration of 3uM; assay type: ADME, cell-based, Canis lupus familiaris; conditions: dog, 1 h
T2 sequence (P08183 whole entry): as above

[33] = target: T1, MDR1 (ABCB1); test: DNDI: % of compound recovered from apical to basolateral permeability assay in MDCK cells transfected with human MDR1 after 60 mins at a concentration of 3uM; assay type: ADME, cell-based, Canis lupus familiaris; conditions: dog
[34] = target: T2, ATP-dependent translocase ABCB1; test: as §1; assay type: ADME, cell-based, Canis lupus familiaris; conditions: dog, mdck
[35] = target: T2, ATP-dependent translocase ABCB1; test: DNDI: Apparent permeability from apical to basolateral side of the MDCK cell transfected with human MDR1after 60 mins at a concentration of 3uM; assay type: ADME, cell-based, Canis lupus familiaris; conditions: dog, mdck, 1 h, 3 µM
[36] = target: T1, MDR1 (ABCB1); test: DNDI: % of compound recovered from basolateral to apical permeability assay in MDCK cells transfected with human MDR1 after 60 mins at a concentration of 3uM; assay type: ADME, cell-based, Canis lupus familiaris; conditions: dog
[37] = tested on: L929; test: as §2; assay type: toxicity, cell-based; conditions: l929
[38] = Trypanosoma brucei, SBRI 427, read-out: IC50

O/N=C(/NC1CCCCC1)c1cccnc1Oc1ccccc1Cl
IC50 [1]: 1.41 µg/mL (≈ 4.08 µM) | MSD [2]: 4 days | MSD [3]: 4 days | efflux ratio [4]: 1.2 | MSD [5]: 4 days | solubility kinetic [6]: 4 µM (≈ 1.38 µg/mL) | Papp A→B [7]: 30.2 ×10⁻⁶ cm/s | MSD [8]: 4 days | microsomal CLint at 10 µM [9]: 211 µL/min/mg | IC50 at 24 h [10]: > 50 µg/mL | Papp B→A at 1 h, 3 µM [11]: 34.8 ×10⁻⁶ cm/s | IC50 [12, 38]: 0.95 µg/mL (≈ 2.75 µM) | recovery [13]: 58% | recovery [14]: 67% | chromatographic logD [15]: 4.52 | MSD [16]: 4 days | half-life at 10 µM [17]: 14 min | MSD [18]: 4 days

COc1ccc(/C(CNC2CCCCC2)=N/O)cc1
microsomal CLint at 1 µM [19]: 235 µL/min/mg | half-life at 1 µM [20]: 4 min | CLint in vitro [21]: 224 µL/min/mg | IC50 at 24 h [10]: > 50 µg/mL | microsomal CLint at 1 µM [22]: 66 µL/min/mg | IC50 [12, 38]: 4.47 µg/mL (≈ 17 µM) | chromatographic logD [15]: 2.93 | solubility kinetic [23]: 13 µM (≈ 3.41 µg/mL) | half-life at 1 µM [24]: 13 min | CLint in vitro [25]: 75 µL/min/mg | t (1 / 2) [26]: 11 min

CCCCc1ccc(-c2nc(CNCCC3CCCN3C)co2)cc1 (stereo not drawn)
half-life at 1 µM [20]: 37 min | CLint in vitro [21]: 23 µL/min/mg | MSD [27]: 7 days | remaining at 1 h, 1 µM [28]: 57.4% | MSD [29]: 10 days | remaining at 1 µM [30]: 3.27% | IC50 [12]: 0.21 µg/mL (≈ 0.615 µM) | IC50 [12, 38]: 0.19 µg/mL (≈ 0.556 µM) | chromatographic logD [15]: 4.69 | solubility kinetic [23]: 100 µM (≈ 34.1 µg/mL) | IC50 at 72 h [31]: 4.21 µg/mL (≈ 12.3 µM)

CN(C)CCNc1nc(Oc2cccc3ccccc23)c2sccc2n1
Papp [32]: 21.11 ×10⁻⁶ cm/s | recovery at 1 h, 3 µM [33]: 77.5% | Calculated Ratio [34]: 0.45 | Papp [35]: 11.62 ×10⁻⁶ cm/s | IC50 [12, 38]: 1.28 µg/mL (≈ 3.51 µM) | recovery at 1 h, 3 µM [36]: 110% | chromatographic logD [15]: 4.85 | solubility kinetic [23]: 100 µM (≈ 36.4 µg/mL) | IC50 at 72 h [31]: 3.48 µg/mL (≈ 9.55 µM)

CN1CCCC1CCNCc1coc(-c2ccc(OC3CCCC3)cc2)n1 (stereo not drawn)
MSD [29]: <1 days | IC50 [12, 38]: 0.22 µg/mL (≈ 0.595 µM) | IC50 [37]: 1.42 µg/mL (≈ 3.84 µM) | IC50 at 72 h [31]: 1.33 µg/mL (≈ 3.6 µM)
